Source: PMC3419577 (The Journal of neuroscience : the official journal of the …, 2012)

Test system: cells in posterior cortex (V1), fresh frozen sections
Assay: Binding of AP-fusion proteins on fresh-frozen brain sections
Parameters: species or system mouse
Conditions: AP staining, competitor with AP-NtHD

In the case of “Full-length Otx2: non-tagged, full-length Otx2 used as competitor”, the “competition of AP-NtHD binding” value is reported as “disrupts AP-NtHD cortical binding”.
